# Test results taken from paper PMC9114338 (Scientific Reports, 2022).
# What was measured:
# [1] = MALDI imaging mass spectrometry of dermal tissues adjacent to the implant; type: in vivo, C57BL/6 J mice
# Protocol: The used implants, the surrounding capsule, and the encasing dermal tissue were removed as a block in accordance with ISO 10993-6 guidelines, processed and stored, as described elsewhere. Briefly, the capsule was cut longitudinally and rolled open, taking care not to disrupt the architecture of the tissue or to damage the used implant. A portion of the tissue specimen was placed into 4% paraformaldehyde solution (phosphate-buffered at pH 7.2), and stored at 4 °C, for histopathology and two other portions were flash-frozen in liquid nitrogen for drug concentration analysis as well as for drug spatial distribution analysis by MALDI-IMS (vide infra).
# Frozen mouse tissue specimens were shipped to Vanderbilt University on dry ice and stored at − 80 °C prior to use. Tissues were removed from the − 80 °C freezer and placed in a − 20 °C cryostat (CM 1900, Leica Biosystems, Buffalo Grove, IL) and sectioned. Tissue samples that had been prepared via removal of the used implant were affixed to the cryostat chuck with optimal cutting temperature (OCT) polymer and were cut on the cryostat into 12 µm thick sections for imaging mass spectrometry and H&E staining.
# Tissue samples that still contained the implant in place were embedded in OCT prior to sectioning. In order to minimize the artifactual signal from the TAF powder after sectioning (the act of the cryostat blade cutting through an intact implant distributed residual TAF powder that still remained in the used implant onto the surrounding tissue section), house vacuum was used to remove visible TAF powder, followed by lightly running nitrogen gas over the plate to remove any additional loose powder from the slide.
# The tissue sections were thaw-mounted onto indium-tin oxide coated glass slides for imaging (Delta Technologies, Ltd, Loveland, CO). The tissue sections were left to dry for at least 15 min in a desktop vacuum desiccator prior to matrix application. […] For 9AA, four passes were applied at 85 °C in a crisscross pattern, with a 700 mm min^-1 stage velocity, 2 mm track spacing, and 0.15 mL min^-1 flow rate. For DHB the same method was used, except eight passes were applied and the stage velocity was 1300 mm min^-1.
# Flash-frozen dermal tissue samples collected adjacent to the TAF implants and sectioned were analyzed with a linear ion trap mass spectrometer equipped with a MALDI source and a nitrogen laser (LTQ XL, Thermo Scientific, Waltham, MA). The structures of compounds of interest are shown in Scheme 1. Targeted MS/MS methods were optimized for each compound using authentic samples as standards, with the final parameters shown in Appendix A under Supplementary Information. Pseudo-selected reaction monitoring mode was used for imaging by isolating precursor ions with a 1 Da window, fragmenting them, and acquiring full product ion mass spectra at each pixel. TFV, TFV-MP, and TFV-DP were analyzed in negative ion mode, while TAF, Metabolite X, and Metabolite Y were analyzed in positive ion mode. In most cases, after imaging, the matrix was removed and the tissue section that had been imaged was H&E stained for better image registration with tissue morphology. Standard images were acquired at either 50 or 100 µm spatial resolution. Reconstructed ion images were generated in ImageQuest software (Thermo Scientific, Waltham, MA) by plotting the intensity of the diagnostic fragment ion or ions as a function of location across the tissue surface.
# [2] = subcutaneous dosing of the free drug, humanized mice; cited from earlier work
structure (smiles),measurement,setting,value
"C[C@H](Cn1cnc2c(N)ncnc21)OCP(=O)(O)O [TFV, tenofovir]",Detection by MALDI-IMS in dermal tissue samples during implant TAF delivery,[1]; all medicated specimens,detected
same,Spatial distribution in dermal tissue sections (MALDI-IMS),"[1]; high-releasing (0.58 mg d^-1) implants, D3–D28",distributed homogeneously throughout the samples
same,MALDI-IMS signal and localization with implant in situ,"[1]; low-releasing (0.23 mg d^-1) implants, Day 14, 100 µm resolution",most abundant signals
same,Plasma TFV t1/2,[2],14 h
